ChEMBL document CHEMBL3885861, “Open TG-GATES”

Species on record: Rattus norvegicus
Assay: Open TG-GATES - Regimen: Daily Repeat
Type: toxicity, organism-based, Sprague-Dawley
Parameters: regimen Daily Repeat, gender Male, age 6 weeks
Conditions: in vivo, po, 30 mg/kg, route gavage, dose level Middle; for APTT / Bas / Eos / Fbg / Hb / Ht / Lym / MCH / MCHC / MCV / Mono / Neu / PT / Plat / RBC / Ret / WBC: tissue Blood; for KIDNEY_L / KIDNEY_R / KIDNEY_TOTAL: tissue Kidney; for LIVER: tissue Liver; for A/G / ALP / ALT / AST / BUN / CRE / Ca / Cl / DBIL / GLC / IP / K / LDH / Na / PL / RALB / TBIL / TC / TG / TP / gamma-GTP: tissue Plasma

NC(=O)N/N=C/c1ccc([N+](=O)[O-])o1 [NITROFURAZONE]
TERMINAL_BW (72 h, time 3 day): 221 g | APTT (72 h, time 3 day): 15.2 s | Bas (72 h, time 3 day): 0% | Eos (72 h, time 3 day): 0.8% | Fbg (72 h, time 3 day): 285 mg/dL | Hb (72 h, time 3 day): 12.7 g/dL | Ht (72 h, time 3 day): 38.3% | Lym (72 h, time 3 day): 78.8% | MCH (72 h, time 3 day): 21.6 pg | MCHC (72 h, time 3 day): 33.2% | MCV (72 h, time 3 day): 65 fL | Mono (72 h, time 3 day): 3.2% | Neu (72 h, time 3 day): 16.6% | PT (72 h, time 3 day): 14.2 s | Plat (72 h, time 3 day): 119.4 x10_4/uL | RBC (72 h, time 3 day): 589.8 x10_4/ul | Ret (72 h, time 3 day): 8.5% | WBC (72 h, time 3 day): 86.5 x10_2/uL | KIDNEY_L (72 h, time 3 day): 1 g | KIDNEY_R (72 h, time 3 day): 0.9 g | KIDNEY_TOTAL (72 h, time 3 day): 1.9 g | LIVER (72 h, time 3 day): 11.3 g | A/G (72 h, time 3 day): 0.9 | ALP (72 h, time 3 day): 1653.2 IU/L | ALT (72 h, time 3 day): 46.2 IU/L | AST (72 h, time 3 day): 70 IU/L | BUN (72 h, time 3 day): 15.4 mg/dL | CRE (72 h, time 3 day): 0.2 mg/dL | Ca (72 h, time 3 day): 11.4 mg/dL | Cl (72 h, time 3 day): 104.2 meq/L | DBIL (72 h, time 3 day): 0.016 mg/dL | GLC (72 h, time 3 day): 182 mg/dL | IP (72 h, time 3 day): 8 mg/dL | K (72 h, time 3 day): 4.4 meq/L | LDH (72 h, time 3 day): 113.2 IU/L | Na (72 h, time 3 day): 140.6 meq/L | PL (72 h, time 3 day): 164.4 mg/dL | RALB (72 h, time 3 day): 2.5 g/dL | TBIL (72 h, time 3 day): 0.048 mg/dL | TC (72 h, time 3 day): 91.4 mg/dL | TG (72 h, time 3 day): 98.6 mg/dL | TP (72 h, time 3 day): 5.5 g/dL | gamma-GTP (72 h, time 3 day): 1 IU/L | TERMINAL_BW ([…], time 7 day): 259.6 g | TERMINAL_BW ([…], time 14 day): 325.5 g | TERMINAL_BW ([…], time 28 day): 410.1 g | APTT ([…], time 7 day): 16.5 s | Bas ([…], time 7 day): 0% | Eos ([…], time 7 day): 1% | Fbg ([…], time 7 day): 267 mg/dL | Hb ([…], time 7 day): 13.2 g/dL | Ht ([…], time 7 day): 39.5% | Lym ([…], time 7 day): 76% | MCH ([…], time 7 day): 21.1 pg | MCHC ([…], time 7 day): 33.5% | MCV ([…], time 7 day): 63.1 fL | Mono ([…], time 7 day): 2.6% | Neu ([…], time 7 day): 20.2% | PT ([…], time 7 day): 14.3 s | Plat ([…], time 7 day): 120.3 x10_4/uL | RBC ([…], time 7 day): 625.8 x10_4/ul | Ret ([…], time 7 day): 7.3% | WBC ([…], time 7 day): 103.6 x10_2/uL | APTT ([…], time 14 day): 14.3 s | Bas ([…], time 14 day): 0% | Eos ([…], time 14 day): 0.8% | Fbg ([…], time 14 day): 308.8 mg/dL | Hb ([…], time 14 day): 13.5 g/dL | Ht ([…], time 14 day): 41.1% | Lym ([…], time 14 day): 81.8% | MCH ([…], time 14 day): 20.8 pg | MCHC ([…], time 14 day): 32.9% | MCV ([…], time 14 day): 63.2 fL | Mono ([…], time 14 day): 2.4% | Neu ([…], time 14 day): 14.2% | PT ([…], time 14 day): 14.4 s | Plat ([…], time 14 day): 117.9 x10_4/uL | RBC ([…], time 14 day): 650.8 x10_4/ul | Ret ([…], time 14 day): 6.1% | WBC ([…], time 14 day): 78.6 x10_2/uL | APTT ([…], time 28 day): 15.7 s | Bas ([…], time 28 day): 0.2% | Eos ([…], time 28 day): 1% | Fbg ([…], time 28 day): 294 mg/dL | Hb ([…], time 28 day): 14.3 g/dL | Ht ([…], time 28 day): 42.2% | Lym ([…], time 28 day): 82.8% | MCH ([…], time 28 day): 19.7 pg | MCHC ([…], time 28 day): 33.8% | MCV ([…], time 28 day): 58.2 fL | Mono ([…], time 28 day): 2% | Neu ([…], time 28 day): 13.6% | PT ([…], time 28 day): 14.3 s | Plat ([…], time 28 day): 99 x10_4/uL | RBC ([…], time 28 day): 727.8 x10_4/ul | Ret ([…], time 28 day): 4.2% | WBC ([…], time 28 day): 114.5 x10_2/uL | KIDNEY_L ([…], time 7 day): 1.1 g | KIDNEY_R ([…], time 7 day): 1.2 g | KIDNEY_TOTAL ([…], time 7 day): 2.3 g | KIDNEY_L ([…], time 14 day): 1.3 g | KIDNEY_R ([…], time 14 day): 1.3 g | KIDNEY_TOTAL ([…], time 14 day): 2.6 g | KIDNEY_L ([…], time 28 day): 1.6 g | KIDNEY_R ([…], time 28 day): 1.6 g | KIDNEY_TOTAL ([…], time 28 day): 3.3 g | LIVER ([…], time 7 day): 13.3 g | LIVER ([…], time 14 day): 17 g | LIVER ([…], time 28 day): 19 g | A/G ([…], time 7 day): 0.8 | ALP ([…], time 7 day): 1619 IU/L | ALT ([…], time 7 day): 41 IU/L | AST ([…], time 7 day): 62.6 IU/L | BUN ([…], time 7 day): 13.8 mg/dL | CRE ([…], time 7 day): 0.2 mg/dL | Ca ([…], time 7 day): 11.2 mg/dL | Cl ([…], time 7 day): 103.6 meq/L | DBIL ([…], time 7 day): 0.016 mg/dL | GLC ([…], time 7 day): 181.8 mg/dL | IP ([…], time 7 day): 7.7 mg/dL | K ([…], time 7 day): 3.8 meq/L | LDH ([…], time 7 day): 90.2 IU/L | Na ([…], time 7 day): 141.8 meq/L | PL ([…], time 7 day): 155.8 mg/dL | RALB ([…], time 7 day): 2.6 g/dL | TBIL ([…], time 7 day): 0.048 mg/dL | TC ([…], time 7 day): 77.6 mg/dL | TG ([…], time 7 day): 117.4 mg/dL | TP ([…], time 7 day): 5.8 g/dL | gamma-GTP ([…], time 7 day): 1 IU/L | A/G ([…], time 14 day): 0.8 | ALP ([…], time 14 day): 1501.8 IU/L | ALT ([…], time 14 day): 41.8 IU/L | AST ([…], time 14 day): 63.6 IU/L | BUN ([…], time 14 day): 18 mg/dL | CRE ([…], time 14 day): 0.2 mg/dL | Ca ([…], time 14 day): 11.1 mg/dL | Cl ([…], time 14 day): 103.6 meq/L | DBIL ([…], time 14 day): 0.014 mg/dL | GLC ([…], time 14 day): 193.4 mg/dL | IP ([…], time 14 day): 7.7 mg/dL | K ([…], time 14 day): 4.1 meq/L | LDH ([…], time 14 day): 89.8 IU/L | Na ([…], time 14 day): 142.2 meq/L | PL ([…], time 14 day): 169.2 mg/dL | RALB ([…], time 14 day): 2.8 g/dL | TBIL ([…], time 14 day): 0.05 mg/dL | TC ([…], time 14 day): 87.2 mg/dL | TG ([…], time 14 day): 107.6 mg/dL | TP ([…], time 14 day): 6.1 g/dL | gamma-GTP ([…], time 14 day): 1 IU/L | A/G ([…], time 28 day): 0.8 | ALP ([…], time 28 day): 1102.6 IU/L | ALT ([…], time 28 day): 38 IU/L | AST ([…], time 28 day): 56.4 IU/L | BUN ([…], time 28 day): 16.4 mg/dL | CRE ([…], time 28 day): 0.2 mg/dL | Ca ([…], time 28 day): 10.7 mg/dL | Cl ([…], time 28 day): 103.2 meq/L | DBIL ([…], time 28 day): 0.012 mg/dL | GLC ([…], time 28 day): 182.4 mg/dL | IP ([…], time 28 day): 7.1 mg/dL | K ([…], time 28 day): 3.8 meq/L | LDH ([…], time 28 day): 43.2 IU/L | Na ([…], time 28 day): 142.8 meq/L | PL ([…], time 28 day): 163.8 mg/dL | RALB ([…], time 28 day): 2.8 g/dL | TBIL ([…], time 28 day): 0.076 mg/dL | TC ([…], time 28 day): 80.2 mg/dL | TG ([…], time 28 day): 104.4 mg/dL | TP ([…], time 28 day): 6.1 g/dL | gamma-GTP ([…], time 28 day): 1 IU/L
